Measured values from US20230393140A1, “BINDING ASSAYS INVOLVING A PLURALITY OF SYNTHETIC COMPOUNDS, TARGETS, AND COUNTER TARGETS” (SRI International, priority 2020, published 2023).
Numbered stars: 1 amine (or outer) side, 2 acyl side, 3 side chain; on linkers, the order of the positions; unused ones are H or OH. Square brackets hold non-standard residues; d marks the D form. Peptide text beside a SMILES is read from it. * marks the point of attachment. 5FAM = O=C1OC2(c3ccc(O)cc3Oc3cc(O)ccc32)c2ccc(C(=O)*)cc21; NHCH2C6H4(4-CH2CONH2) = NC(=O)Cc1ccc(CN*)cc1; X1 = O=C(Cc1ccc(CN[*:1])cc1)[*:2]

Assays:
ASGPR = molecular target: T1, ASGPR (Homo sapiens, UniProt P07306); assay: MST binding affinity of resynthesized NNP hits to ASGPR; settings: read-out: KD of ASGPR hits by MST
T1 construct: purchased R&D Systems, Inc. 4394-AS
T1 sequence (P07306 1-291): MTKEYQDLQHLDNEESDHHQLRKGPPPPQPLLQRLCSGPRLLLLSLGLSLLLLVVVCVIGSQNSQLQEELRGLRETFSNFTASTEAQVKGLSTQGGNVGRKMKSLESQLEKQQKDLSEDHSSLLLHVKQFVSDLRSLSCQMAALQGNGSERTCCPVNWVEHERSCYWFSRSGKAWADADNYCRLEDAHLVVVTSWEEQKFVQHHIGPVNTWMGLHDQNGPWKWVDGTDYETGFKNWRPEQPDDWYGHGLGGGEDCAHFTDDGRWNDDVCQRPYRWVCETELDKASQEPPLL
Method: Hit binding affinity to various targets were determined using Microscale Thermophoresis (MST). MST experiments were performed on a Monolith NT.115pico (NanoTemper Technologies GmbH, Munich, Germany). Measurements were performed at room temperature, in triplicate with incubation periods of 15, 30 and 45 minutes. […] Targets were labeled using Nanotemper Monolith 2nd Generation Protein Labeling Kits. RED-MALEIMIDE (Maleimide-647-dye) labeling kit was used for K-Ras and RED-NHS (NHS-647-dye) labeling kit was used for IL-6, IL-6R, TNFα and ASGPR. The buffer for the ASGPR contained 20 mM HEPES pH 7.4, 150 mM NaCl, 10 mM MgCl2, 2 mM CaCl2, 0.05% Pluronic F-127, and 1 mM DTT; for IL-6 contained 20 mM HEPES pH 7.4, 150 mM KCl, 10 mM MgCl2, and 0.1% Pluronic F-127; for the soluble IL-6 receptor 20 mM HEPES pH 7.4, 150 mM NaCl, 10 mM MgCl2, and 0.05% Tween-20; for K-Ras 20 mM HEPES pH 7.4, 150 mM NaCl, 10 mM MgCl2, 0.05% Tween-20 and 1 mM DTT; for TNFα 10 mM HEPES pH 7.4, 150 mM NaCl, 10 mM MgCl2, 0.05% Polysorbate-20. Triplicate data was analyzed using MO.AffinityAnalysis software (NanoTemper Technologies GmbH).

HepG2 cells = assay: Confocal imaging of HepG2 cell uptake; type: cell-based, human
Method: More particularly, FIG. 11B illustrates cell uptake of GalNAc (positive control), two NNP hits (ASGPR-9-4 and ASGPR-9-6) and a non-hit NNP (KRAS-1-14, negative control) in HepG2 (high ASGPR expressing) verses HEK293 (low ASGPR expressing) cells lines. FIG. 11C illustrates competition uptake assay of GalNAc and two NNP hits (ASGPR-9-4 and ASGPR-9-6) in HepG2 cells after preincubation with different concentrations of asialofetuin (a naturally occurring serum protein ASGPR ligand). Decrease in cell uptake with increasing concentrations of asialofetuin indicates blocking of ASGPR-mediated uptake. FIG. 11D illustrates example confocal images 1113, 1115, 1117, 1119 of HepG2 cell uptake (scale: x20 for the images 1113, 1115, 1117 and x40 for the image 1119). FL=fluorescein label; Cell nucleus staining with DAPI (blue). No uptake with the blank sample (DMSO) is seen at 4 degrees C.

[1] = test system: HepG2 cells (high ASGPR expressing); assay: ASGPR uptake assay, flow cytometry, HepG2; type: cell-based, human
Method: The HEK293T (human embryonic kidney cells) and human hepatoma HepG2 cells were grown according to the protocols provided by the American Type Culture Collection (ATCC). When cells reached cell were seeded at ˜1.5×10^5 cells/well in 24-well culture plate for the uptake assay. After at least 16 hours of culture to allow cell attach and equilibrate, the compound treatment was set up for the uptake assay.
The fluorescein-labeled NNPs or fluorescein-labeled N-acetylgalactosamine (GalNAc) recognizing ASGRPR were added to wells at indicated concentrations and incubated for 2 hours. Two plates were prepared for each treatment condition, one serving as 4 degrees C. no internalization control that was kept on ice during incubation, while the second plate was incubated at 37 degrees C. to allow for energy dependent internalization. Following the incubation period, all plates were placed on ice and washed three times with ice-cold PBS/3% BSA/2 mM EDTA and then lifted with trypsin. Cells were transferred to a 96-well round bottom plates in FACS buffer. Cells were then analyzed by flow cytometry using LSR-HJ with HTS sampler (BD Biosciences, San Jose, CA, USA). Data (mean fluorescence intensities) and further analyzed using Flowjo software (BD Biosciences, San Jose, CA, USA). The internalized fraction was expressed as the difference between the corresponding 4 degrees C. and 37 degrees C. MFIs as previously described.

[2] = test system: ASGPR-mediated uptake in HepG2 cells; assay: Competitive uptake assay with asialofetuin in HepG2; type: cell-based, human; settings: test compound 0.3 μM
Method: For the competitive uptake assay with the natural ligand of ASGPR (asialofetuin), cells were pre-incubated with 20 μM and 60 μM asialofetuin on ice or at 37 degrees C. for 1.5 hours, followed by the treatment with compounds for additional 2 hours before flow cytometric analysis as described above. The reduction of the uptake under asialofetuin competition was expressed by the percentage against the same treatment condition without asialofetuin.

## CC(C)C[C@H](NC(=O)[C@@H](CCCNC(=N)N)NC(=O)[C@@H](CCCCN)NC(=O)[C@@H](CCC(=O)O)NC(=O)[C@@H](Cc1ccccc1)NC(=O)Cc1ccc(CNC(=O)[C@H](Cc2ccccc2)NC(=O)[C@@H](CO)NC(=O)[C@@H](CCC(=O)O)NC(=O)[C@H]2CCCN2C(=O)[C@@H](CC(C)C)NC(=O)c2ccc3c(c2)C(=O)OC32c3ccc(O)cc3Oc3cc(O)ccc32)cc1)C(=O)NCc1ccc(CC(=O)NCC(=O)N2CCC[C@@H]2C(=O)N[C@H](CCCNC(=N)N)C(=O)N[C@H](CO)C(=O)N[C@@H](Cc2ccccc2)C(=O)NCc2ccc(CC(=O)N[C@H](Cc3ccc(O)cc3)C(=O)N[C@@H](C(=O)N3CCC[C@@H]3C(=O)N[C@H](CCCNC(=N)N)C(=O)N[C@@H](C)C(=O)NCc3ccc(CC(=O)N[C@H](CCCNC(=N)N)C(=O)N[C@H](Cc4ccccc4)C(=O)N4CCC[C@@H]4C(=O)N[C@@H](C(=O)NCC(=O)NCc4ccc(CC(=O)N[C@H](CC(C)C)C(=O)N5CCC[C@@H]5C(=O)N[C@H](CCCNC(=N)N)C(=O)N[C@@H](C(=O)NCC(=O)NCc5ccc(CC(N)=O)cc5)[C@H](C)O)cc4)C(C)C)cc3)[C@H](C)O)cc2)cc1 [ASGPR-9-6] (5FAM-[dL][dP][dE][dS]F[X1][dF][dE][dK][dR]L[X1]G[dP][dR][dS]F[X1][dY][dT][dP][dR]A[X1][dR][dF][dP][dV]G[X1][dL][dP][dR][dT]G-{NHCH2C6H4(4-CH2CONH2)})
ASGPR
  Kd: 34 nM
HepG2 cells; 4 degrees C.
  HepG2 cell uptake, confocal images, 4 degrees C.: not at 4 °C
HepG2 cells; 37 degrees C.
  HepG2 cell uptake, confocal images, 37 degrees C.: intracellular uptake is observed
[1]; HepG2, flow cytometry
  Internalization compared with positive control GalNAc: significantly higher than uptake of the positive control GalNAc
[1]; fluorescein-labeled compounds, flow cytometry, 2 hours
  Internalization (cell uptake) in HepG2: significantly higher in HepG2 cells compared to in HEK293 cells
[2]; 60 μM asialofetuin (200-fold excess)
  Cellular uptake with 60 μM asialofetuin: mostly abolished
[2]; asialofetuin 20 μM and 60 μM
  Cellular uptake after pre-incubation with asialofetuin: decreased with increasing concentrations of asialofetuin
